Legend:
Assay type in all cases: in vivo
[1] = tested on: Solanum nigrum (SOLNI); experiment: Post-emergence biological efficacy, glasshouse pot test; details: 312 h, 1,000 g/ha, post-emergence (sprayed after 8 days), evaluated after 13 days, 100=total damage, 0=no damage, read-out: Percentage damage caused to weed species, post-emergence, SOLNI
Description: (§1) Seeds of Alopecurus myosuroides (ALOMY), Setaria faberi (SETFA), Echinochloa crus-galli (ECHCG), Solanum nigrum (SOLNI), Amaranthus retroflexus (AMARE) and Ipomoea hederaceae (IPOHE) were sown in standard soil in pots. After cultivation for 8 days under controlled conditions in a glasshouse (at 24/16° C., day/night; 14 hours light; 65% humidity), the plants were sprayed with an aqueous spray solution derived from the formulation of the technical active ingredient in acetone/water (50:50) solution containing 0.5% Tween 20 (polyoxyethylene sorbitan monolaurate, CAS RN 9005-64-5) to give a final dose of 1000 g/ha of test compound.
(§2) The test plants were then grown on under controlled conditions in a glasshouse (at 24/16° C., day/night; 14 hours light; 65% humidity) and watered twice daily. After 13 days the test was evaluated (100=total damage to plant; 0=no damage to plant).

[2] = tested on: Alopecurus myosuroides (ALOMY); experiment: as above; details: 312 h, 1,000 g/ha, post-emergence (sprayed after 8 days), evaluated after 13 days, 100=total damage, 0=no damage, read-out: Percentage damage caused to weed species, post-emergence, ALOMY
Description: as §1, §2

[3] = tested on: Setaria faberi (SETFA); experiment: as above; details: 312 h, 1,000 g/ha, post-emergence (sprayed after 8 days), evaluated after 13 days, 100=total damage, 0=no damage, read-out: Percentage damage caused to weed species, post-emergence, SETFA
Description: as §1, §2

[4] = tested on: Ipomoea hederaceae (IPOHE); experiment: as above; details: 312 h, 1,000 g/ha, post-emergence (sprayed after 8 days), evaluated after 13 days, 100=total damage, 0=no damage, read-out: Percentage damage caused to weed species, post-emergence, IPOHE
Description: as §1, §2

[5] = tested on: Amaranthus retroflexus (AMARE); experiment: as above; details: 312 h, 1,000 g/ha, post-emergence (sprayed after 8 days), evaluated after 13 days, 100=total damage, 0=no damage, read-out: Percentage damage caused to weed species, post-emergence, AMARE
Description: as §1, §2

[6] = tested on: Echinochloa crus-galli (ECHCG); experiment: as above; details: 312 h, 1,000 g/ha, post-emergence (sprayed after 8 days), evaluated after 13 days, 100=total damage, 0=no damage, read-out: Percentage damage caused to weed species, post-emergence, ECHCG
Description: as §1, §2

[7] = tested on: Solanum nigrum (SOLNI); experiment: Pre-emergence biological efficacy, glasshouse pot test; details: 312 h, 1,000 g/ha, evaluated after 13 days, 100=total damage, 0=no damage, read-out: Percentage damage caused to weed species, pre-emergence, SOLNI
Description: as §1, with “one day” for “8 days”
(§3) The test plants were then grown under controlled conditions in the glasshouse (at 24/16° C., day/night; 14 hours light; 65% humidity) and watered twice daily. After 13 days the test was evaluated (100=total damage to plant; 0=no damage to plant).

[8] = tested on: Alopecurus myosuroides (ALOMY); experiment: as above; details: 312 h, 1,000 g/ha, evaluated after 13 days, 100=total damage, 0=no damage, read-out: Percentage damage caused to weed species, pre-emergence, ALOMY
Description: as §1, with “one day” for “8 days”
as §3

[9] = tested on: Setaria faberi (SETFA); experiment: as above; details: 312 h, 1,000 g/ha, evaluated after 13 days, 100=total damage, 0=no damage, read-out: Percentage damage caused to weed species, pre-emergence, SETFA
Description: as §1, with “one day” for “8 days”
as §3

[10] = tested on: Ipomoea hederaceae (IPOHE); experiment: as above; details: 312 h, 1,000 g/ha, evaluated after 13 days, 100=total damage, 0=no damage, read-out: Percentage damage caused to weed species, pre-emergence, IPOHE
Description: as §1, with “one day” for “8 days”
as §3

[11] = tested on: Amaranthus retroflexus (AMARE); experiment: as above; details: 312 h, 1,000 g/ha, evaluated after 13 days, 100=total damage, 0=no damage, read-out: Percentage damage caused to weed species, pre-emergence, AMARE
Description: as §1, with “one day” for “8 days”
as §3

[12] = tested on: Echinochloa crus-galli (ECHCG); experiment: as above; details: 312 h, 1,000 g/ha, evaluated after 13 days, 100=total damage, 0=no damage, read-out: Percentage damage caused to weed species, pre-emergence, ECHCG
Description: as §1, with “one day” for “8 days”
as §3

Row | Compound | pest or weed control at 1000 g/ha [1] | pest or weed control at 1000 g/ha [2] | pest or weed control at 1000 g/ha [3] | pest or weed control at 1000 g/ha [4] | pest or weed control at 1000 g/ha [5] | pest or weed control at 1000 g/ha [6] | pest or weed control at 1000 g/ha [7] | pest or weed control at 1000 g/ha [8] | pest or weed control at 1000 g/ha [9] | pest or weed control at 1000 g/ha [10] | pest or weed control at 1000 g/ha [11] | pest or weed control at 1000 g/ha [12]
1 | C=Cc1c(C(=O)OC)nc(Cl)c(F)c1N [Compound 2-12, 4-amino-6-chloro-3-ethenyl-5-fluoro-pyridine-2-carboxylic acid methyl ester] | 100% | 80% | 90% | 80% | 100% | 80% | 100% | 100% | 90% | 100% | 100% | 100%
2 | C=Cc1c(N2CCCC2)cc(Cl)nc1C(=O)OC [Compound 31-4, 6-Chloro-3-ethenyl-4-pyrrolidin-1-yl-pyridine-2-carboxylic acid methyl ester] | 90% | 20% | 50% | 70% | 90% | 20% | 90% | 60% | 50% | 80% | 100% | 10%
3 | C/C=C\c1c(N)cc(Cl)nc1C(=O)OC [2-5 (Z isomer), (Z)-4-Amino-6-chloro-3-(prop-1-enyl)-pyridine-2-carboxylic acid methyl ester] | 100% | 50% | 80% | 50% | 100% | 60% | 100% | 90% | 100% | 90% | 100% | 70%
4 | COC(=O)c1nc(Cl)cc(N)c1C=C(C)C [Compound 2-165, 4-Amino-6-chloro-3-(2-methylprop-1-enyl)-pyridine-2-carboxylic acid methyl ester] | 90% | 70% | 90% | 70% | 100% | 70% | 100% | 80% | 90% | 90% | 100% | 70%
5 | C=Cc1c(NC2CCCC2)cc(Cl)nc1C(=O)OC [Compound 27-4, 6-Chloro-4-cyclopentylamino-3-ethenyl-pyridine-2-carboxylic acid methyl ester] | 80% | 10% | 70% | 60% | 100% | 10% | 100% | 50% | 70% | 50% | 100% | 10%
6 | C=Cc1c(N)cc(Cl)nc1C(=O)OC [Compound 2-4, 4-amino-6-chloro-3-ethenyl-pyridine-2-carboxylic acid methyl ester] | 100% | 90% | 100% | 80% | 100% | 80% | 100% | 90% | 90% | 100% | 100% | 90%
7 | C=CCc1c(N)cc(Cl)nc1C(=O)OC [Compound 2-7, 4-amino-6-chloro-3-(prop-2-enyl)-pyridine-2-carboxylic acid methyl ester] | 90% | 20% | 30% | 50% | 90% | 10% | 90% | 30% | 40% | 70% | 90% | 40%
8 | C=Cc1c(C(=O)O)nc(Cl)c(Cl)c1N [Compound 1-20, 4-Amino-5,6-dichloro-3-ethenyl-pyridine-2-carboxylic acid] | 90% | 90% | 90% | 100% | 100% | 90% | 100% | 90% | 90% | 100% | 100% | 90%
9 | C=C(C)Cc1c(N)cc(Cl)nc1C(=O)OC [Compound 2-8, 4-amino-6-chloro-3-(2-methyl-prop-2-enyl)-pyridine-2-carboxylic acid methyl ester] | 80% | 10% | 10% | 50% | 70% | 0% | 80% | 10% | 10% | 80% | 40% | 0%
10 | C=Cc1c(NC2CC2)cc(Cl)nc1C(=O)OC [Compound 23-4, 6-Chloro-4-cyclopropylamino-3-ethenyl-pyridine-2-carboxylic acid methyl ester] | 100% | 60% | 80% | 70% | 100% | 30% | 100% | 70% | 80% | 80% | 100% | 70%
